In patent publication US9982005B2, “Macrolides and methods of their preparation and use” (President and Fellows of Harvard College, priority 2013, dated 2018):
In brackets after ≈: the same amount, converted by molar mass. Read-outs that look alike come from different tables or passages of the source.

Legend:
Assay type in all cases: cell-based
S. aureus strains = assay: MIC against S. aureus strains (Table M7); conditions: for MIC: Staphylococcus aureus
How it was run: (§1)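 Standard CLSI broth dilution method used for MIC determination. Control: azithromycin.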

E. coli strains = assay: MIC against E. coli strains (Table M7); conditions: Escherichia coli, ATCC25922, E. coli ATCC 25922
How it was run: as §1

K. pneumoniae strains = assay: MIC against K. pneumoniae strains (Table M8); conditions: Klebsiella pneumoniae, K. pneumoniae 10031
[1] = tested on: SA101 S. aureus ATCC29213; assay: broth dilution MIC, S. aureus SA101; conditions: Staphylococcus aureus, ATCC29213, SA101 S. aureus ATCC29213; read-out: MIC
Text: (§2) We have collected MIC data for a total of 50 novel macrolides that this platform has produced against over 21 unique strains of B. subtilis, E. coli, S. aureus, S. pneumoniae, and H. influenzae, including several multidrug-resistant strains, with a special focus on macrolide resistant mechanisms (vide supra). Azithromycin was included as a control macrolide. CLSI standard procedures for broth dilution MIC determination were used. […] These genotypes can be constitutive or inducible. The finding that C4-epi (unnatural) isomers of the “azaketolide” macrolide class have enhanced activities relative to C4 natural isomers is very exciting.

E. faecalis strains = assay: MIC against E. faecalis strains (Table M8); conditions: Enterococcus faecalis, E. faecalis 29212
A. baumannii strains = assay: MIC against A. baumannii strains (Table M8); conditions: for MIC: Acinetobacter baumannii, BAA747, A. baumannii BAA747-1
EC107 E. coli ATCC25922 = assay: broth dilution MIC, E. coli EC107; conditions: Escherichia coli, read-out: MIC
Text: as §2

BS1725 B. subtilis ermC = assay: broth dilution MIC, B. subtilis BS1725; conditions: Bacillus subtilis
Text: as §2

S. pneumoniae strains = assay: MIC against S. pneumoniae strains (Tables M7, M8); conditions: Streptococcus pneumoniae
Text: CLSI standard procedures for broth dilution MIC determination were used. […] These genotypes can be constitutive or inducible.

EC878 E. coli tolC = assay: broth dilution MIC, E. coli EC878; conditions: Escherichia coli
Text: as §2

H. influenzae strains = assay: MIC against H. influenzae strains (Table M8); conditions: Haemophilus influenzae
How it was run: as §1

[2] = tested on: BS1723 B. subtilis BS168 WT wild type; assay: broth dilution MIC, B. subtilis BS1723; conditions: Bacillus subtilis
Text: as §2

EC882 E. coli imp = assay: broth dilution MIC, E. coli EC882; conditions: Escherichia coli
Text: as §2

E. coli (MC4100) = assay: MIC, E. coli MC4100; conditions: Escherichia coli, round 2, read-out: MIC
Text: as §2

[3] = tested on: S. aureus (Newman, clinical isolate); assay: MIC, S. aureus Newman; conditions: Staphylococcus aureus, S. aureus (Neuman, clinical isolate), round 2
Text: as §2

[4] = ATCC29213, S. aureus ATCC 29213, read-out: MIC S. aureus (ATCC 29213)
[5] = S. aureus 506, read-out: MIC S. aureus (506)
[6] = S. aureus 1708, read-out: MIC S. aureus (1708)
[7] = USA300, S. aureus USA300, read-out: MIC S. aureus (USA300)
[8] = S. pneumoniae 160, read-out: MIC S. pneumonae (160)
[9] = S. pneumoniae 1509, read-out: MIC S. pneumoniae (1509)
[10] = S. pneumoniae 1533, read-out: MIC S. pneumoniae (1533)
[11] = S. pneumoniae 1537, read-out: MIC S. pneumoniae (1537)
[12] = S. pneumoniae 49619, read-out: MIC S. pneumoniae (49619)
[13] = H. influenzae 49247, read-out: MIC H. influenzae (49247)
[14] = H. influenzae 49766, read-out: MIC H. influenzae (49766)
[15] = BS1723 B. subtilis BS168 WT wild type, read-out: MIC

SMILES	MIC (S. aureus strains; [4]) [µg/mL]	MIC (S. aureus strains; [5]) [µg/mL]	MIC (S. aureus strains; [6]) [µg/mL]	MIC (S. aureus strains; [7]) [µg/mL]	MIC (E. coli strains) [µg/mL]	MIC (K. pneumoniae strains) [µg/mL]	MIC [1] [µg/mL]	MIC (E. faecalis strains) [µg/mL]	MIC (A. baumannii strains) [µg/mL]	MIC (EC107 E. coli ATCC25922) [µg/mL]	MIC (BS1725 B. subtilis ermC; BS1725 B. subtilis ermC (+ery)) [µg/mL]	MIC (S. pneumoniae strains; [8]) [µg/mL]	MIC (S. pneumoniae strains; [9]) [µg/mL]	MIC (S. pneumoniae strains; [10]) [µg/mL]	MIC (S. pneumoniae strains; [11]) [µg/mL]	MIC (S. pneumoniae strains; [12]) [µg/mL]	MIC (EC878 E. coli tolC) [µg/mL]	MIC (H. influenzae strains; [13]) [µg/mL]	MIC (H. influenzae strains; [14]) [µg/mL]	MIC (EC882 E. coli imp) [µg/mL]	further results
CC[C@H]1OC(=O)[C@H](C)C(=O)[C@H](C)[C@@H](O[C@@H]2OC(C)CC(N(C)C)C2O)[C@](C)(OC)C[C@@H](C)CN(C(C)=O)[C@H](C)[C@H]2N(CCCCn3cc(-c4cccc(N)c4)nn3)C(=O)O[C@]12C (stereo partly drawn) [FSM-20767]	16 (≈ 18.4 µM)	> 32	32 (≈ 36.8 µM)	32 (≈ 36.8 µM)	> 32	32 (≈ 36.8 µM)	16 (≈ 18.4 µM)	4 (≈ 4.6 µM)	> 32	> 32	> 32	2 (≈ 2.3 µM)	> 32	> 32	> 32	0.5 (≈ 0.575 µM)	4 (≈ 4.6 µM)	8 (≈ 9.19 µM)	16 (≈ 18.4 µM)	1 (≈ 1.15 µM)	MIC (BS1725 B. subtilis ermC; BS1725 B. subtilis ermC (−ery)): 8 µg/mL (≈ 9.19 µM); MIC [2, 15]: 16 µg/mL (≈ 18.4 µM)
CC[C@H]1OC(=O)[C@H](C)C(=O)C[C@@H](O[C@@H]2OC(C)CC(N(C)C)C2O)[C@](C)(OC)C[C@@H](C)CN[C@H](C)[C@H]2N(CCCCn3cc(-c4cccc(N)c4)nn3)C(=O)O[C@]12C (stereo partly drawn) [FSM-10781]	> 32	> 32	> 32	> 32	32 (≈ 39.3 µM)	8 (≈ 9.83 µM)	> 32	8 (≈ 9.83 µM)	32 (≈ 39.3 µM)	16 (≈ 19.7 µM)	> 32	2 (≈ 2.46 µM)	> 32	> 32	> 32	8 (≈ 9.83 µM)	1 (≈ 1.23 µM)	1 (≈ 1.23 µM)	8 (≈ 9.83 µM)	0.25 (≈ 0.307 µM)	MIC (BS1725 B. subtilis ermC; BS1725 B. subtilis ermC (−ery)): > 32 µg/mL; MIC [2, 15]: > 32 µg/mL
CC[C@H]1OC(=O)[C@H](C)C(=O)[C@H](C)[C@@H](O[C@@H]2OC(C)CC(N(C)C)C2O)/C(C)=C/CN[C@H](C)[C@H]2N(CCCCn3cc(-c4cccc(N)c4)nn3)C(=O)O[C@]12C (stereo partly drawn) [FSM-30624]	–	–	–	–	–	–	–	–	–	–	–	–	–	–	–	–	–	–	–	–	MIC (E. coli (MC4100)): > 32 µg/mL; MIC [3]: > 32 µg/mL
CC[C@H]1OC(=O)[C@H](C)C(=O)C[C@@H](O[C@@H]2OC(C)CC(N(C)C)C2O)[C@@](C)(OC)C[C@@H](C)CN[C@H](C)[C@H]2N(CCCCn3cc(-c4cccc(N)c4)nn3)C(=O)O[C@]12C (stereo partly drawn) [FSM-30502]	> 32	> 32	> 32	> 32	> 32	> 32	> 32	> 32	> 32	> 32	> 32	> 32	> 32	> 32	> 32	> 32	> 32	16 (≈ 19.7 µM)	> 32	> 32	MIC (BS1725 B. subtilis ermC; BS1725 B. subtilis ermC (−ery)): > 32 µg/mL; MIC [2, 15]: > 32 µg/mL
CC[C@H]1OC(=O)[C@H](C)[C@@H](O[C@H]2C[C@@](C)(OC)[C@@H](O)[C@H](C)O2)[C@H](C)[C@@H](O[C@@H]2O[C@H](C)C[C@H](N(C)C)[C@H]2O)[C@](C)(O)C[C@@H](C)C(=O)[C@H](C)[C@@H](O)[C@]1(C)O [Erythromycin, erythromycin, reference compound]	0.5 (≈ 0.681 µM)	> 32	> 32	> 32	> 32	8 (≈ 10.9 µM)	0.5 (≈ 0.681 µM)	2 (≈ 2.73 µM)	32 (≈ 43.6 µM)	> 32	> 32	2 (≈ 2.73 µM)	> 32	> 32	> 32	≤ 0.0625	2 (≈ 2.73 µM)	2 (≈ 2.73 µM)	8 (≈ 10.9 µM)	2 (≈ 2.73 µM)	MIC S. aureus (ATCC 29213) (S. aureus strains; S. aureus ATCC 29213): 0.25 µg/mL (≈ 0.341 µM); MIC (S. aureus strains; S. aureus 183, read-out: MIC S. aureus (183)): > 32 µg/mL; MIC A. baumannii (BAA747-1) (A. baumannii strains; A. baumannii BAA747-1): >32 µg/mL; MIC (BS1725 B. subtilis ermC; BS1725 B. subtilis ermC (−ery)): > 32 µg/mL; MIC [2]: 0.125 µg/mL (≈ 0.17 µM)
CC[C@H]1OC(=O)[C@H](C)C(=O)[C@H](C)[C@@H](O[C@@H]2OC(C)CC(N(C)C)C2O)[C@](C)(OC)C[C@@H](C)CN[C@H](C)[C@H]2N(CCCCn3cc(-c4nc5ccccc5s4)nn3)C(=O)O[C@]12C (stereo partly drawn) [FSM-20711]	4 (≈ 4.6 µM)	> 32	4 (≈ 4.6 µM)	4 (≈ 4.6 µM)	16 (≈ 18.4 µM)	4 (≈ 4.6 µM)	2 (≈ 2.3 µM)	1 (≈ 1.15 µM)	> 32	16 (≈ 18.4 µM)	32 (≈ 36.8 µM)	0.125 (≈ 0.144 µM)	> 32	> 32	> 32	0.5 (≈ 0.575 µM)	0.5 (≈ 0.575 µM)	1 (≈ 1.15 µM)	8 (≈ 9.19 µM)	0.0312 (≈ 0.0359 µM)	MIC [2, 15]: 2 µg/mL (≈ 2.3 µM)
